Measured values published in the kinase profiling compilation of Christmann-Franck et al. (2016).

Tests used:
Assay in all cases: KINOMEscan competition binding
Conditions in all cases: compound 10.0 µM
ROS1 (human) = ROS1 (human) (UniProt P08922)
EPHA3 (human) = EPHA3 (human) (UniProt P29320)
EPHB3 (human) = EPHB3 (human) (UniProt P54753)
MAPK4 (human) = MAPK4 (human) (UniProt P31152)
RIPK2 (human) = RIPK2 (human) (UniProt O43353)
AURKA (human) = AURKA (human) (UniProt O14965)
TSSK1B (human) = TSSK1B (human) (UniProt Q9BXA7)
CaMK1 (human) = CaMK1 (human) (UniProt Q14012)
CSNK1E (human) = CSNK1E (human) (UniProt P49674)
RPS6KA6 KD1 (human) = RPS6KA6 KD1 (human) (UniProt Q9UK32)
PHKG2 (human) = PHKG2 (human) (UniProt P15735)
Chain of PHKG2 (human) (P15735 whole entry, looked up): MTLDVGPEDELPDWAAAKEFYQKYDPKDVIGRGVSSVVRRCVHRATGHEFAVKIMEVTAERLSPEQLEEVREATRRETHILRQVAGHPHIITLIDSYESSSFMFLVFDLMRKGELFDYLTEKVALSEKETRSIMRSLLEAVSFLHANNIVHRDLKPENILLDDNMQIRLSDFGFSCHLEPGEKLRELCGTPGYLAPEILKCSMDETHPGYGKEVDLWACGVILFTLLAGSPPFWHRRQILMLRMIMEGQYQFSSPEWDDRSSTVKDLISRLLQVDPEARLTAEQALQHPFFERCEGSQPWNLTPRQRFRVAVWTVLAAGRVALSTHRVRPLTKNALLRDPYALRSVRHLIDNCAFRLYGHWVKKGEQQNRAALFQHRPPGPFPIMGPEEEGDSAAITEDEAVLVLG

CDC42BPB (human) = CDC42BPB (human) (UniProt Q9Y5S2)
MUSK (human) = MUSK (human) (UniProt O15146)
CLK3 (human) = CLK3 (human) (UniProt P49761)
EIF2AK2 (human) = EIF2AK2 (human) (UniProt P19525)
MYLK2 (human) = MYLK2 (human) (UniProt Q9H1R3)
DAPK3 (human) = DAPK3 (human) (UniProt O43293)
MAP4K5 (human) = MAP4K5 (human) (UniProt Q9Y4K4)
Chain of MAP4K5 (human) (Q9Y4K4 whole entry, looked up): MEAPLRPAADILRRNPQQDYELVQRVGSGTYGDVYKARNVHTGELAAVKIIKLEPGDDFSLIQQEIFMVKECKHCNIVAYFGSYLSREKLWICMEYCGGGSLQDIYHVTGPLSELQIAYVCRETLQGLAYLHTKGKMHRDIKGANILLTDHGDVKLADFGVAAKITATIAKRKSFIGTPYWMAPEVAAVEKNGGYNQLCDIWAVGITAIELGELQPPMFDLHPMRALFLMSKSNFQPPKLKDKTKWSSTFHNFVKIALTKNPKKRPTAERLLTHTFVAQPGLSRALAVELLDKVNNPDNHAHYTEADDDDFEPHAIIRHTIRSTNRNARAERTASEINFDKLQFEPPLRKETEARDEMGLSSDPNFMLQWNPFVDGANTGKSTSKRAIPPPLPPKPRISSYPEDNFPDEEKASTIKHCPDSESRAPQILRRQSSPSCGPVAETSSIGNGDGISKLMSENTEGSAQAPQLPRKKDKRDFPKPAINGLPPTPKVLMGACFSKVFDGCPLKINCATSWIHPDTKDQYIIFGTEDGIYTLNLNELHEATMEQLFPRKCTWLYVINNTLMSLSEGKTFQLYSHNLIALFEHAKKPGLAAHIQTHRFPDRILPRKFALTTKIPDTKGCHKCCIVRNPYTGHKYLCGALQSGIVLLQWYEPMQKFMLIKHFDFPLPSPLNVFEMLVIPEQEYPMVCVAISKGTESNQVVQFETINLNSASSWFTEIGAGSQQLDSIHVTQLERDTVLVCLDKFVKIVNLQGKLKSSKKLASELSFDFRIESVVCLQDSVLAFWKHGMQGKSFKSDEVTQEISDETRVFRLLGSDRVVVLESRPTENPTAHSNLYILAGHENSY

SRC (human) = SRC (human) (UniProt P12931)
BMPR2 (human) = BMPR2 (human) (UniProt Q13873)
Chain of BMPR2 (human) (Q13873 whole entry, looked up): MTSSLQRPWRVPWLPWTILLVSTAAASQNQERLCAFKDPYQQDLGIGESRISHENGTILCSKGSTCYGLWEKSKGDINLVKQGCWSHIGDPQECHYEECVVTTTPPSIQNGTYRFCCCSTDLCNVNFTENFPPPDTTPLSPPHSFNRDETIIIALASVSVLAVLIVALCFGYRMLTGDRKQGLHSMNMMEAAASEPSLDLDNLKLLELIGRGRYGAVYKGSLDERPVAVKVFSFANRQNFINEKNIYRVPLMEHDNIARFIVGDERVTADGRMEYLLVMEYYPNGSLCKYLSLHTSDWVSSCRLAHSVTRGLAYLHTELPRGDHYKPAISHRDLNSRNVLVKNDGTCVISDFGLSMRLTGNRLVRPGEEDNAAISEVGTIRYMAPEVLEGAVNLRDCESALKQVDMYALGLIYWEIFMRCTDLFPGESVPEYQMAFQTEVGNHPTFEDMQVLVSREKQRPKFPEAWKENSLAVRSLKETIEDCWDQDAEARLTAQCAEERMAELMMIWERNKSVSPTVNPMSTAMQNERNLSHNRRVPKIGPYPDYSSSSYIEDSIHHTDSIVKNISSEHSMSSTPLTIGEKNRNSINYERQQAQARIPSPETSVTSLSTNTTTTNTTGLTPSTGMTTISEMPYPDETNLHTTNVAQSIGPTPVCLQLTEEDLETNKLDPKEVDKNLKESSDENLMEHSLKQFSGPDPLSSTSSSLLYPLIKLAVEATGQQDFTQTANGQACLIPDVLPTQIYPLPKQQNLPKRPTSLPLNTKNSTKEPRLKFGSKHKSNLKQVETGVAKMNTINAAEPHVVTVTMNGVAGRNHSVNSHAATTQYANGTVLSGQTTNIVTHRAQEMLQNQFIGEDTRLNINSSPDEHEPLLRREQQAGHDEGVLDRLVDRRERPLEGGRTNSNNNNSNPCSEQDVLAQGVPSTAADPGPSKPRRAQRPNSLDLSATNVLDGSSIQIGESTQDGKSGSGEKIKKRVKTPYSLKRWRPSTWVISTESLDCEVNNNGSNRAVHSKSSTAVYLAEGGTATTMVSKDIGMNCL

MAPK12 (human) = MAPK12 (human) (UniProt P53778)
MAP3K9 (human) = MAP3K9 (human) (UniProt P80192)
HIPK1 (human) = HIPK1 (human) (UniProt Q86Z02)
[1] = biological target: JAK1 JH1 catalytic (human) (UniProt P23458)
[2] = biological target: JAK2 JH1 catalytic (human) (UniProt O60674)
PRKACA (human) = PRKACA (human) (UniProt P17612)
CDKL2 (human) = CDKL2 (human) (UniProt Q92772)
Chain of CDKL2 (human) (Q92772 whole entry, looked up): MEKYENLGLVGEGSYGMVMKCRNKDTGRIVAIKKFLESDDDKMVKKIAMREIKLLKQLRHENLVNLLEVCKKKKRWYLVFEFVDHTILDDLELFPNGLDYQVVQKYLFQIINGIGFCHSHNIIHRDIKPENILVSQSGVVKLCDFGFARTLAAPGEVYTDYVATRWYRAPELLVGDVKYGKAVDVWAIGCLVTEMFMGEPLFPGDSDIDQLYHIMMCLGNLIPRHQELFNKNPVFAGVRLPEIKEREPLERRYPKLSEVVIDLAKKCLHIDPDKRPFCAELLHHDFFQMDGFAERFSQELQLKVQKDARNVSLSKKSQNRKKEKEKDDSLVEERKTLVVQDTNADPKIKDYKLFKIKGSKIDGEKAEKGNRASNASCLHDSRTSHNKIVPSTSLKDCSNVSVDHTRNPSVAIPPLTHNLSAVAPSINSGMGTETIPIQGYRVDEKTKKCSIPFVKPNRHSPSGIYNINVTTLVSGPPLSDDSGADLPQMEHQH

PIM1 (human) = PIM1 (human) (UniProt P11309)
EPHB1 (human) = EPHB1 (human) (UniProt P54762)
DDR2 (human) = DDR2 (human) (UniProt Q16832)
MAPK1 (human) = MAPK1 (human) (UniProt P28482)
PIP4K2B (human) = PIP4K2B (human) (UniProt P78356)
Chain of PIP4K2B (human) (P78356 whole entry, looked up): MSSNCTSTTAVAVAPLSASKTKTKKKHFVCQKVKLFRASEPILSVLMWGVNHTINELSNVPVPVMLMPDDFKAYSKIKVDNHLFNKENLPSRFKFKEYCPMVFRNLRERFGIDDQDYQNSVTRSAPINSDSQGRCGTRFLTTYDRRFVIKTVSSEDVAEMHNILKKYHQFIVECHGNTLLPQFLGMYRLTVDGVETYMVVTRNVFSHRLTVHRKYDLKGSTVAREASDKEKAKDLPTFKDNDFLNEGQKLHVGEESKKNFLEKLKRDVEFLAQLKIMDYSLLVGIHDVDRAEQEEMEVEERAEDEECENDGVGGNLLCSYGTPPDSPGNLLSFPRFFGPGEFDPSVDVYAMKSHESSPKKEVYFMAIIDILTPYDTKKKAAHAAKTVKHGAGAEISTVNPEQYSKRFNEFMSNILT

NEK7 (human) = NEK7 (human) (UniProt Q8TDX7)
NEK6 (human) = NEK6 (human) (UniProt Q9HC98)
PRKACB (human) = PRKACB (human) (UniProt P22694)
RIOK2 (human) = RIOK2 (human) (UniProt Q9BVS4)
CDK7 (human) = CDK7 (human) (UniProt P50613)
MARK1 (human) = MARK1 (human) (UniProt Q9P0L2)
Chain of MARK1 (human) (Q9P0L2 whole entry, looked up): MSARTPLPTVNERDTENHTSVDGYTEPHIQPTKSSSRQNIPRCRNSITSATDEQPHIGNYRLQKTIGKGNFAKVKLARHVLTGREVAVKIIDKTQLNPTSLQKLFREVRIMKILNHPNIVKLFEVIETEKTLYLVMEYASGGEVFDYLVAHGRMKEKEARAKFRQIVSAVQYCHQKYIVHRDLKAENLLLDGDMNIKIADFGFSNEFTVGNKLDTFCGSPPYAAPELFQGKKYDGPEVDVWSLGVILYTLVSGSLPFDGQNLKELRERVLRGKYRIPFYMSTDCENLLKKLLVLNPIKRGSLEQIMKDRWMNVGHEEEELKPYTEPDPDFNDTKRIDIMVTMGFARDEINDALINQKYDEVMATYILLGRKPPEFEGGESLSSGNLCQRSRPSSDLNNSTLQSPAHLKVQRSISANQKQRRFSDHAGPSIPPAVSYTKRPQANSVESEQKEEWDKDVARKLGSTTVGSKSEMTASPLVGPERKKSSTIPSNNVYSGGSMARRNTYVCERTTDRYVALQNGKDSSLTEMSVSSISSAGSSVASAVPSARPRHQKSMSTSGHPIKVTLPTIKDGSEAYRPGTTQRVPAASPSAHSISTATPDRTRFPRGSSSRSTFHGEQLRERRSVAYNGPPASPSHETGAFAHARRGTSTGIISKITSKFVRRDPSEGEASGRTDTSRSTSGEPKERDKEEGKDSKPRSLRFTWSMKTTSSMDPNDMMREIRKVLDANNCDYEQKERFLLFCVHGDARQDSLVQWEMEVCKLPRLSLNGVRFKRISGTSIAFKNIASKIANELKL

TLK1 (human) = TLK1 (human) (UniProt Q9UKI8)
IRAK3 (human) = IRAK3 (human) (UniProt Q9Y616)

Chain of AURKA (human) (O14965 whole entry, looked up): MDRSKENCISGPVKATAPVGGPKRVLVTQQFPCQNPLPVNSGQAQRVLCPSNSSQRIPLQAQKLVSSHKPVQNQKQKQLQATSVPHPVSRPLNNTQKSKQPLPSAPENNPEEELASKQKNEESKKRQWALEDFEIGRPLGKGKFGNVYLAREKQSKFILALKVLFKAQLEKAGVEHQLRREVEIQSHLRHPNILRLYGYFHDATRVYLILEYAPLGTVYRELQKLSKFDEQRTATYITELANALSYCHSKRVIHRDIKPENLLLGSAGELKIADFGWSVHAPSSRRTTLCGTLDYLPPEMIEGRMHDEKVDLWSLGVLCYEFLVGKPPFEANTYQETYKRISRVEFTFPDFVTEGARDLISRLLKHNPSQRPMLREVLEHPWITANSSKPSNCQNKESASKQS
Chain of RIPK2 (human) (O43353 whole entry, looked up): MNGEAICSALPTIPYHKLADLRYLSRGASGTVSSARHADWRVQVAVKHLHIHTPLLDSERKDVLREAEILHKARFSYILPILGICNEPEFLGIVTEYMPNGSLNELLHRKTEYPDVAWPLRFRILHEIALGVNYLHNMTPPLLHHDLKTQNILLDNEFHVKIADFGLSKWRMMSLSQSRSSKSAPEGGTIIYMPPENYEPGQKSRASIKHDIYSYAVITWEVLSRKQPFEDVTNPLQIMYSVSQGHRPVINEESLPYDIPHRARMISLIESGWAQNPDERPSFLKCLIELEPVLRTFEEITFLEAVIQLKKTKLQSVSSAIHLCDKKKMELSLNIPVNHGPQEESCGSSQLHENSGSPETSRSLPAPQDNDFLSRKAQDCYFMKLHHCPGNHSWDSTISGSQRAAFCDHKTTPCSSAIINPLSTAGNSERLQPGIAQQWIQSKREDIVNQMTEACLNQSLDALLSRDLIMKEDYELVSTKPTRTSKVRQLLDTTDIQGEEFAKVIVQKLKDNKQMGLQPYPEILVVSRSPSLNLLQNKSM

Compound | kinase still bound, per cent of control (ROS1 (human)) [%] | kinase still bound, per cent of control (EPHA3 (human)) [%] | kinase still bound, per cent of control (EPHB3 (human)) [%] | kinase still bound, per cent of control (MAPK4 (human)) [%] | kinase still bound, per cent of control (RIPK2 (human)) [%] | kinase still bound, per cent of control (AURKA (human)) [%] | kinase still bound, per cent of control (TSSK1B (human)) [%] | kinase still bound, per cent of control (CaMK1 (human)) [%] | kinase still bound, per cent of control (CSNK1E (human)) [%] | kinase still bound, per cent of control (RPS6KA6 KD1 (human)) [%] | kinase still bound, per cent of control (PHKG2 (human)) [%] | kinase still bound, per cent of control (CDC42BPB (human)) [%] | kinase still bound, per cent of control (MUSK (human)) [%] | kinase still bound, per cent of control (CLK3 (human)) [%] | kinase still bound, per cent of control (EIF2AK2 (human)) [%] | kinase still bound, per cent of control (MYLK2 (human)) [%] | kinase still bound, per cent of control (DAPK3 (human)) [%] | kinase still bound, per cent of control (MAP4K5 (human)) [%] | kinase still bound, per cent of control (SRC (human)) [%] | kinase still bound, per cent of control (BMPR2 (human)) [%] | other results
C=CC(=O)Nc1cc(NC(=O)c2ccc(C)c(NC(=O)c3ccno3)c2)cc(C(F)(F)F)c1 | 100 | 9.8 | 99 | 100 | 100 | 95 | 93 | 88 | 100 | 86 | 95 | 91 | 100 | 100 | 100 | 100 | 96 | 100 | 49 | 100 | kinase still bound, per cent of control (MAPK12 (human)): 96%; kinase still bound, per cent of control (MAP3K9 (human)): 98%; kinase still bound, per cent of control (HIPK1 (human)): 97%; kinase still bound, per cent of control [1]: 100%; kinase still bound, per cent of control [2]: 74%; kinase still bound, per cent of control (PRKACA (human)): 100%; kinase still bound, per cent of control (CDKL2 (human)): 100%; kinase still bound, per cent of control (PIM1 (human)): 100%; kinase still bound, per cent of control (EPHB1 (human)): 79%; kinase still bound, per cent of control (DDR2 (human)): 40%; kinase still bound, per cent of control (MAPK1 (human)): 100%; kinase still bound, per cent of control (PIP4K2B (human)): 100%; kinase still bound, per cent of control (NEK7 (human)): 100%; kinase still bound, per cent of control (NEK6 (human)): 100%; kinase still bound, per cent of control (PRKACB (human)): 100%; kinase still bound, per cent of control (RIOK2 (human)): 92%; kinase still bound, per cent of control (CDK7 (human)): 91%; kinase still bound, per cent of control (MARK1 (human)): 100%; kinase still bound, per cent of control (TLK1 (human)): 100%; kinase still bound, per cent of control (IRAK3 (human)): 100%
O=C(NC1CC1)c1cccc(-c2ccc3c(NC(=O)C4CC4)n[nH]c3c2)c1 | 100 | 64 | 100 | 100 | 72 | 86 | 69 | 84 | 80 | 91 | 84 | 76 | 91 | 80 | 85 | 12 | 69 | 24 | 100 | 91 | kinase still bound, per cent of control (MAPK12 (human)): 24%; kinase still bound, per cent of control (MAP3K9 (human)): 66%; kinase still bound, per cent of control (HIPK1 (human)): 28%; kinase still bound, per cent of control [1]: 100%; kinase still bound, per cent of control [2]: 18%; kinase still bound, per cent of control (PRKACA (human)): 100%; kinase still bound, per cent of control (CDKL2 (human)): 8.6%; kinase still bound, per cent of control (PIM1 (human)): 70%; kinase still bound, per cent of control (EPHB1 (human)): 100%; kinase still bound, per cent of control (DDR2 (human)): 90%; kinase still bound, per cent of control (MAPK1 (human)): 100%; kinase still bound, per cent of control (PIP4K2B (human)): 5.6%; kinase still bound, per cent of control (NEK7 (human)): 100%; kinase still bound, per cent of control (NEK6 (human)): 90%; kinase still bound, per cent of control (PRKACB (human)): 100%; kinase still bound, per cent of control (RIOK2 (human)): 78%; kinase still bound, per cent of control (CDK7 (human)): 18%; kinase still bound, per cent of control (MARK1 (human)): 96%; kinase still bound, per cent of control (TLK1 (human)): 51%; kinase still bound, per cent of control (IRAK3 (human)): 69%
